Laboratory results reported in US8471004B2, “Bicyclic compounds” (Hoffman-La Roche Inc., priority 2009, dated 2013).
pIC50: −log10 of the molar value.

Target: T1, human chemokine receptor 2 isoform B (Homo sapiens, UniProt P41597)
T1 construct: host or cells: CHOK1-CCR2B-A5 (CHO-K1)
T1 sequence (P41597 1-360 isoform P41597-2): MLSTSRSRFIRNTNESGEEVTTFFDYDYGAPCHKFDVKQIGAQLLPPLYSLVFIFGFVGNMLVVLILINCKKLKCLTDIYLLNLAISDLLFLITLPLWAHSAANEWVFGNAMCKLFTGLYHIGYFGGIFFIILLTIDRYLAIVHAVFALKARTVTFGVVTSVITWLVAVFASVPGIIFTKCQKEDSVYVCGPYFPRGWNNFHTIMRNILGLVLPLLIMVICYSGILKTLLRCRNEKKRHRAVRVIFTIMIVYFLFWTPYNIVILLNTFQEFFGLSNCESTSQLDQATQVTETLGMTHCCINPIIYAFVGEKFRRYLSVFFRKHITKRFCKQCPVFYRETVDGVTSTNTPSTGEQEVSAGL
Assay: Calcium mobilization assay (CHOK1-CCR2B-A5 cells, FLIPR, MCP-1 stimulated)
Format: cell-based
Conditions: Ca mobilisation assay for CCR2, antagonist activity, 50% inhibition of specific calcium increases after 20 nM MCP-1
Method: CHOK1-CCR2B-A5 cells (from Euroscreen) stably overexpressing the human chemokine receptor 2 isoform B were cultured in Nutrient Hams F12 medium supplemented with 5% FBS, 100 U/ml penicillin, 100 μg/ml streptomycin, 400 μg/ml G418 and 5 μg/ml puromycin.
For the assay cells were grown overnight in 384-well black clear flat bottom polystyrene plates (Costar) at 37° C. at 5% CO2. After washing with DMEM, 20 mM Hepes, 2.5 mM probenecid, 0.1% BSA (DMEM assay buffer) cells were loaded with 4 μM Fluo-4 in the same DMEM assay buffer for 2 hours at 30° C. Excess dye was removed and cells were washed with DMEM assay buffer. 384-well compound plates were prepared with DMEM assay buffer/0.5% DMSO with or without various concentrations of test compounds. Usually compounds were tested for agonist and antagonist activity.
Test compounds were added to the assay plate and agonist activity was monitored as fluorescence for 80 seconds with a FLIPR (488 nm excitation; 510-570 nm emission; Molecular Devices). After 20-30 min. of incubation at 30° C., 20 nM MCP-1 (R&D; Roche) was added and fluorescence was monitored again for 80 seconds. Increases in intracellular calcium are reported as maximum fluorescence after agonist exposure minus basal fluorescence before exposure. Antagonist activity is indicated as inhibitor concentration required for 50% inhibition of specific calcium increases.

| Compound | pIC50 |
| --- | --- |
| C[C@H]1C(=O)N2[C@@H](CCCN3CCC(F)(F)C3)CC[C@H]2CN1C(=O)Nc1ccc(Cl)c(Cl)c1 [Example 45, (3S,6S,8aS)-6-[3-(3,3-Difluoro-pyrrolidin-1-yl)-propyl]-3-methyl-4-oxo-hexahydro-pyrrolo[1,2-a]pyrazine-2-carboxylic acid (3,4-dichloro-phenyl)-amide] | 6.70 |
| C[C@H]1C(=O)N2[C@@H](CCCN3CCC(F)(F)CC3)CC[C@H]2CN1C(=O)Nc1ccc(Cl)c(Cl)c1 [Example 46, (3S,6S,8aS)-6-[3-(4,4-Difluoro-piperidin-1-yl)-propyl]-3-methyl-4-oxo-hexahydro-pyrrolo[1,2-a]pyrazine-2-carboxylic acid (3,4-dichloro-phenyl)-amide] | 7.58 |
| C[C@H]1C(=O)N2[C@@H](CCCN3CCCC(F)(F)C3)CC[C@H]2CN1C(=O)Nc1ccc(Cl)c(Cl)c1 [Example 47, (3S,6S,8aS)-6-[3-(3,3-Difluoro-piperidin-1-yl)-propyl]-3-methyl-4-oxo-hexahydro-pyrrolo[1,2-a]pyrazine-2-carboxylic acid (3,4-dichloro-phenyl)-amide] | 7.17 |
| O=C(Nc1ccc(Cl)c(Cl)c1)N1CCC(=O)N2[C@@H](CCN3CCC4(CC4)[C@H](O)C3)CC[C@H]2C1 [Example 49, (7R,9aS)-7-[2-((S)-4-Hydroxy-6-aza-spiro[2.5]oct-6-yl)-ethyl]-5-oxo-hexahydro-pyrrolo[1,2-a][1,4]diazepine-2-carboxylic acid (3,4-dichloro-phenyl)-amide] | 6.84 |
| C[C@H]1C(=O)N2[C@@H](CCC(=O)N3CCC4(CC4)[C@H](O)C3)COC[C@H]2CN1C(=O)Nc1ccc(Cl)c(Cl)c1 [Example 51, (4S,7S,9aR)-4-[3-((S)-4-Hydroxy-6-aza-spiro[2.5]oct-6-yl)-3-oxo-propyl]-7-methyl-6-oxo-hexahydro-pyrazino[2,1-c][1,4]oxazine-8-carboxylic acid (3,4-dichloro-phenyl)-amide] | 7.06 |
| C[C@H]1C(=O)N2[C@@H](CCC(=O)N3CCC4(CC4)[C@H](O)C3)COC[C@H]2CN1C(=O)Nc1ccc(C(F)(F)F)c(Cl)c1 [Example 52, (4S,7S,9aR)—N-(3-chloro-4-(trifluoromethyl)phenyl)-4-(3-((S)-4-hydroxy-6-azaspiro[2.5]octan-6-yl)-3-oxopropyl)-7-methyl-6-oxohexahydropyrazino[2,1-c][1,4]oxazine-8(1H)-carboxamide] | 7.83 |
| C[C@H]1C(=O)N2[C@@H](CCN3CCC4(CC4)C(F)(F)C3)COC[C@H]2CN1C(=O)Nc1ccc(Cl)c(Cl)c1 [Example 53, (4S,7S,9aR)—N-(3,4-dichlorophenyl)-4-(2-(4,4-difluoro-6-azaspiro[2.5]octan-6-yl)ethyl)-7-methyl-6-oxohexahydropyrazino[2,1-c][1,4]oxazine-8(1H)-carboxamide] | 7.78 |
| C[C@H]1C(=O)N2[C@@H](CCN3CCC4(CC4)C(F)(F)C3)COC[C@H]2CN1C(=O)Nc1cccc(Cl)c1 [Example 54, (4S,7S,9aR)—N-(3-chlorophenyl)-4-(2-(4,4-difluoro-6-azaspiro[2.5]octan-6-yl)ethyl)-7-methyl-6-oxohexahydropyrazino[2,1-c][1,4]oxazine-8(1H)-carboxamide] | 6.77 |
| C[C@H]1C(=O)N2[C@@H](CCN3CCC4(CC4)C(F)(F)C3)COC[C@H]2CN1C(=O)Nc1ccc(C(F)(F)F)c(Cl)c1 [Example 55, (4S,7S,9aR)—N-(3-chloro-4-(trifluoromethyl)phenyl)-4-(2-(4,4-difluoro-6-azaspiro[2.5]octan-6-yl)ethyl)-7-methyl-6-oxohexahydropyrazino[2,1-c][1,4]oxazine-8(1H)-carboxamide] | 7.46 |
| C[C@H]1C(=O)N2[C@@H](CCN3CCC(F)(F)CC3)COC[C@H]2CN1C(=O)Nc1ccc(Cl)c(Cl)c1 [Example 56, (4S,7S,9aR)—N-(3,4-dichlorophenyl)-4-(2-(4,4-difluoropiperidin-1-yl)ethyl)-7-methyl-6-oxohexahydropyrazino[2,1-c][1,4]oxazine-8(1H)-carboxamide] | 7.09 |
| C[C@H]1C(=O)N2[C@@H](CCN3CCC(F)(F)CC3)COC[C@H]2CN1C(=O)Nc1ccc(C(F)(F)F)c(Cl)c1 [Example 57, (4S,7S,9aR)—N-(3-chloro-4-(trifluoromethyl)phenyl)-4-(2-(4,4-difluoropiperidin-1-yl)ethyl)-7-methyl-6-oxohexahydropyrazino[2,1-c][1,4]oxazine-8(1H)-carboxamide] | 6.92 |
| C[C@H]1C(=O)N2[C@@H](CCN3CCS(=O)(=O)CC3)COC[C@H]2CN1C(=O)Nc1ccc(Cl)c(Cl)c1 [Example 58, (4S,7S,9aR)-4-[2-(1,1-Dioxo-thiomorpholin-4-yl)-ethyl]-7-methyl-6-oxo-hexahydro-pyrazino[2,1-c][1,4]oxazine-8-carboxylic acid (3,4-dichloro-phenyl)-amide] | 6.38 |
| C[C@H]1C(=O)N2[C@@H](CCN3CCS(=O)(=O)CC3)COC[C@H]2CN1C(=O)Nc1ccc(C(F)(F)F)c(Cl)c1 [Example 59, (4S,7S,9aR)-4-[2-(1,1-Dioxo-6-thiomorpholin-4-yl)-ethyl]-7-methyl-6-oxo-hexahydro-pyrazino[2,1-c][1,4]oxazine-8-carboxylic acid (3-chloro-4-trifluoromethyl-phenyl)-amide] | 6.72 |
| C[C@H]1C(=O)N2[C@@H](CCCN3CCC4(CC4)C(F)(F)C3)COC[C@H]2CN1C(=O)Nc1ccc(Cl)c(Cl)c1 [Example 60, (4S,7S,9aR)—N-(3,4-dichlorophenyl)-4-(3-(4,4-difluoro-6-azaspiro[2.5]octan-6-yl)propyl)-7-methyl-6-oxohexahydropyrazino[2,1-c][1,4]oxazine-8(1H)-carboxamide] | 7.32 |
| C[C@H]1C(=O)N2[C@@H](CCCN3CCC4(CC4)C(F)(F)C3)COC[C@H]2CN1C(=O)Nc1ccc(C(F)(F)F)c(Cl)c1 [Example 61, (4S,7S,9aR)—N-(3-chloro-4-(trifluoromethyl)phenyl)-4-(3-(4,4-difluoro-6-azaspiro[2.5]octan-6-yl)propyl)-7-methyl-6-oxohexahydropyrazino[2,1-c][1,4]oxazine-8(1H)-carboxamide] | 7.47 |
| C[C@H]1C(=O)N2[C@@H](CCC(=O)N3CCC4(CC4)[C@H](O)C3)CCC[C@H]2CN1C(=O)/C=C/c1ccc(F)c(Cl)c1 [Example 62, (3S,6R,9aS)-2-[(E)-3-(3-Chloro-4-fluoro-phenyl)-acryloyl]-6-[3-((S)-4-hydroxy-6-aza-spiro[2.5]oct-6-yl)-3-oxo-propyl]-3-methyl-octahydro-pyrido[1,2-a]pyrazin-4-one] | 6.66 |
| C[C@H]1C(=O)N2[C@@H](CCC(=O)N3CCC4(CC4)[C@H](O)C3)CCC[C@H]2CN1C(=O)Nc1ccc(Cl)c(Cl)c1 [Example 63, (3S,6R,9aS)-6-[3-((S)-4-Hydroxy-6-aza-spiro[2.5]oct-6-yl)-3-oxo-propyl]-3-methyl-4-oxo-octahydro-pyrido[1,2-a]pyrazine-2-carboxylic acid (3,4-dichloro-phenyl)-amide] | 7.97 |
| C[C@H]1C(=O)N2[C@@H](CCC(=O)N3CCC4(CC4)[C@H](O)C3)CCC[C@H]2CN1C(=O)Nc1ccc(C(F)(F)F)c(Cl)c1 [Example 64, (3S,6R,9aS)-6-[3-((S)-4-Hydroxy-6-aza-spiro[2.5]oct-6-yl)-3-oxo-propyl]-3-methyl-4-oxo-octahydro-pyrido[1,2-a]pyrazine-2-carboxylic acid (3-chloro-4-trifluoromethyl-phenyl)-amide] | 7.84 |
| C[C@H]1C(=O)N2[C@@H](CCN3CCC4(CC4)[C@H](O)C3)CCC[C@H]2CN1C(=O)Nc1ccc(Cl)c(Cl)c1 [Example 65, (3S,6R,9aS)-6-[2-((S)-4-Hydroxy-6-aza-spiro[2.5]oct-6-yl)-ethyl]-3-methyl-4-oxo-octahydro-pyrido[1,2-a]pyrazine-2-carboxylic acid (3,4-dichloro-phenyl)-amide] | 8.66 |
| C[C@H]1C(=O)N2[C@@H](CCN3CCC4(CC4)[C@H](O)C3)CCC[C@H]2CN1C(=O)Nc1cccc(Cl)c1 [Example 66, (3S,6R,9aS)-6-[2-((S)-4-Hydroxy-6-aza-spiro[2.5]oct-6-yl)-ethyl]-3-methyl-4-oxo-octahydro-pyrido[1,2-a]pyrazine-2-carboxylic acid (3-chloro-phenyl)-amide] | 8.52 |
| C[C@H]1C(=O)N2[C@@H](CCN3CCC4(CC4)[C@H](O)C3)CCC[C@H]2CN1C(=O)Nc1cccc(F)c1 [Example 67, (3S,6R,9aS)-6-[2-((S)-4-Hydroxy-6-aza-spiro[2.5]oct-6-yl)-ethyl]-3-methyl-4-oxo-octahydro-pyrido[1,2-a]pyrazine-2-carboxylic acid (3-fluoro-phenyl)-amide] | 8.10 |
